From publication PMC3532720, “A Sugar Gustatory Receptor Identified from the Foregut of Cotton Bollworm Helicoverpa armigera” (Journal of Chemical Ecology, 2012)

The compounds below were run against T1, HaGR9 (Helicoverpa armigera, UniProt L0C9V2) (assay: calcium imaging, transfected Sf9 cells). Conditions: agonist; dose range 5 to 50 mM; HBSS buffer; control-cell response subtracted; Sf9 cells have endogenous sugar responses.
T1 construct: gene GR9; native full-length receptor, 465 residues, untagged, cDNA from larval foregut, transiently expressed in Spodoptera frugiperda Sf9 cells, no co-receptor co-transfected
T1 sequence (L0C9V2 1-465): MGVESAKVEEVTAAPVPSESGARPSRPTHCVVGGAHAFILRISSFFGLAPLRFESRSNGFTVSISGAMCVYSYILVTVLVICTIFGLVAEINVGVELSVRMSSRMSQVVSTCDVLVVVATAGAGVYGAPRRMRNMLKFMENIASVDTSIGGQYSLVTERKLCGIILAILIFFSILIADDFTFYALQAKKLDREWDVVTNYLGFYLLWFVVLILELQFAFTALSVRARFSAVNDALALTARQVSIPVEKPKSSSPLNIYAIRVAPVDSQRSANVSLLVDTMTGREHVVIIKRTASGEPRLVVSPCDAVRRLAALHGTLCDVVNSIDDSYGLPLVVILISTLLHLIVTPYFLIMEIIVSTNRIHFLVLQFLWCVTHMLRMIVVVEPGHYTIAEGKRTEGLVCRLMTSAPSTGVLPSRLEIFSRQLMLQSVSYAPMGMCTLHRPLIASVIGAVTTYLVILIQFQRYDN
Assay type: cell-based

Row | SMILES | EC50 [mM]
1 | OCC1(O)OC[C@@H](O)[C@@H](O)[C@@H]1O (stereo partly drawn) [D-fructose] | 21.5 ± 1.1
2 | OC[C@H]1OC(O)[C@H](O)[C@@H](O)[C@H]1O (stereo partly drawn) [D-galactose] | 21.3 ± 1.1
3 | OC[C@H]1O[C@H](O[C@H]2[C@H](O)[C@@H](O)C(O)O[C@@H]2CO)[C@H](O)[C@@H](O)[C@@H]1O (stereo partly drawn) [D-maltose] | 16.5 ± 1.3
